This passage reports IC50 and EC50 results from patent US10981932B2, “Macrocyclic indole derivatives” (Bayer Aktiengesellschaft, priority 2016, dated 2021).

Molecules are shown by their SMILES. “And” between values parts separate entries of the source, which are not always exact repeats. Equal values may be shown once. Where a name gives a salt, the structure may show the parent alone. Read-outs that look alike come from different tables or passages of the source.

Data set [1] concerns SUDHL5. Kind of data set: Induction of cytotoxicity (CellTiter-Glo, 5 h), SUDHL5. Background: Cellular ATP, detected with luciferase, serves as a proxy for viable cell number.
Data set [2] concerns SUDHL10. Kind of data set: Induction of cytotoxicity (CellTiter-Glo, 5 h), SUDHL10.
For data set [3], the system named is SUDHL10. Kind of data set: Induction of caspase-3/7 activity (Caspase-Glo 3/7), SUDHL10. The note with it: caspase-3/7 induction, SUDHL10 cells, 3 h treatment, median. Type of data set: cell-based. Summed up: (§1)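 DLBCL cells treated with compounds for 3 h at 37 °C, then caspase-3/7 activity read by Caspase-Glo 3/7 luminescence. Medium-only background subtracted; EC50 fitted with C0 fixed at 1 and top set to the reference compound's maximal induction.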

In data set [4] the test system is SUDHL10. Kind of data set: Anti-proliferative effect (CellTiter-Glo, 72 h), SUDHL10. It counts as cell-based. Particulars: SUDHL10 cells, antiproliferation, 72 h incubation, median, read-out: Antiproli SUDHL10 [M] (median). Summed up:
(§2)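 Cells were treated with compounds for 72 h at 37 °C in a humidified incubator, and viability was measured by CellTiter-Glo luminescence. A parallel day 0 plate, read the same way, gave the time zero baseline.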

Data set [5] has as its system SUDHL5. Kind of data set: Induction of caspase-3/7 activity (Caspase-Glo 3/7), SUDHL5. Particulars: caspase-3/7 induction, SUDHL5 cells, 3 h treatment, median. Type of data set: cell-based. Summed up:
as §1

For a further data set, the target named is MCL-1 (Homo sapiens, UniProt Q07820). Kind of data set: Protein-protein interaction assay MCL-1/Noxa BH3 peptide (MCL-1 assay), TR-FRET. Type of data set: binding. Particulars: MBP-MCL-1 / Noxa BH3-derived peptide, median. Summed up:
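TR-FRET, 665/622 nm emission ratio (excitation 330–350 nm), measured MCL-1/Noxa complex formation. 1 nM MBP-MCL-1, 50 mM Tris/HCl pH 7, 0.1% BGG, 2 mM DTT. Incubation 1 h at 22 °C, then overnight at 4 °C. IC50 by 4-parameter regression, normalized to DMSO (0%) and no-MCL-1 (100%) controls.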
For orientation: TR-FRET usually uses a lanthanide donor and a delayed reading to cut background.

Data set [6] has as its system SUDHL5. Kind of data set: Anti-proliferative effect (CellTiter-Glo, 72 h), SUDHL5. Type of data set: cell-based. Particulars: SUDHL5 cells, antiproliferation, 72 h incubation, median, read-out: Antiproli SUDHL5 [M] (median). Summed up: as §2
Another data set has as its system A2780. Kind of data set: Anti-proliferative effect (CellTiter-Glo, 72 h), A2780. Type of data set: cell-based. Particulars: A2780 cells, median, read-out: IC50 antiproliferation assay A2780 [M] (median). Put shortly:
as §2

The next data set relates to MV-4-11. Kind of data set: Anti-proliferative effect (CellTiter-Glo, 72 h), MV-4-11. Type of data set: cell-based. Particulars: Homo sapiens, MV4-11, 72 h, MV-4-11 cells, median, read-out: IC50 antiproliferation assay MV-4-11 [M] (median). Put shortly: as §2
Where [7] appears, read: read-out: Cytotox SUDHL5 [M] (median), SUDHL5 cells, cytotoxicity induction, CellTiter-Glo, 5 h incubation, median.
The mark [8] stands for this setting: read-out: Cytotox SUDHL10 [M] (median), SUDHL10 cells, cytotoxicity induction, CellTiter-Glo, 5 h incubation, median.
Setting [9] is: Homo sapiens, SU-DHL10, 5 h, read-out: Cytotox SUDHL10 [M] (median), SUDHL10 cells, cytotoxicity induction, CellTiter-Glo, 5 h incubation, median.

Chain of MCL-1 (Q07820 whole entry): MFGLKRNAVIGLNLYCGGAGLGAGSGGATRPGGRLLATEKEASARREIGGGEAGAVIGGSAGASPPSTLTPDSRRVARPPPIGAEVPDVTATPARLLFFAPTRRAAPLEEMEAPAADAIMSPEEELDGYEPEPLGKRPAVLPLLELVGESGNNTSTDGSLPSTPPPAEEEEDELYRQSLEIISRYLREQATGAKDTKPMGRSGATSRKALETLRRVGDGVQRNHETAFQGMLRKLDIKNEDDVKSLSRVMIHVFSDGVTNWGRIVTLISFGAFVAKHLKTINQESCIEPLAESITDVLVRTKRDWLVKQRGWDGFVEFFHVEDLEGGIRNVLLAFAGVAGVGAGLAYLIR

Broadly, the EC50 is the midpoint of the concentration-response curve. Regarding `Cn1nc(COc2cncnc2)c2c1COCCCCn1c(C(=O)O)c(CCCOc3cccc4ccccc34)c3cccc-2c31` (single isomer, unassigned) [Example 212, 1-methyl-7-[3-(naphthalen-1-yloxy)propyl]-3-[(pyrimidin-5-yloxy)methyl]-1,10,11,12,13,15-hexahydropyrazolo[4′,3′:9,10][1,6]oxazacycloundecino[8,7,6-hi]indole-8-carboxylic Acid], the IC50 is 6.68e-06 M in the data set on SUDHL5 [1] (setting [7]); 2.02e-05 M with SUDHL10 [2] (setting [8]); 3.63e-06 M in the data set with SUDHL10 [4]; 6.37 nM against MCL-1; 5.11e-06 M in the data set on SUDHL5 [6]; 2.15e-05 M and > 3.3e-05 M in the data set with A2780. Also, in the data set with MV-4-11, the IC50 is 5e-06 M. For the same compound, the EC50 turned out to be 19.9 µM in the data set with SUDHL10 [3] and 7.34 µM with SUDHL5 [5].
For the compound `O=C(O)c1c(CCCOc2cccc3ccccc23)c2cccc3c2n1CCCCOCc1nn2c(c1-3)COCC2` (single isomer, unassigned) [Example 252, 1-[3-(naphthalen-1-yloxy)propyl]-4,5,6,7,12,13-hexahydro-9H,15H-[1,4]oxazino[4″,3″:1′,5′]pyrazolo[4′,3′:9,10][1,6]oxazacycloundecino[8,7,6-hi]indole-2-carboxylic acid-N-ethylethanamine Salt], the IC50 in the data set with SUDHL5 [1] (setting [7]) is 5.17e-06 M; in the data set on SUDHL10 [2] (setting [8]) it was 2.09e-05 M; in the data set on SUDHL10 [4], 6.31e-06 M; on MCL-1, 3.7 nM; in the data set on SUDHL5 [6], 8.78e-06 M; with A2780 it was 3.16e-05 M and > 3.3e-05 M. Further, in the data set with MV-4-11, the IC50 was found to be 1.04e-05 M. Further, the EC50 in the data set with SUDHL10 [3] came to 17.2 µM; with SUDHL5 [5], 4.79 µM.
With `Cc1nn(C)c2c1-c1cccc3c(CCCOc4cccc5c4CCCC5)c(C(=O)O)n(c13)CCCCOC2` (single isomer, unassigned; enantiomer 1) [Example 007, 1,3-dimethyl-7-[3-(5,6,7,8-tetrahydronaphthalen-1-yloxy)propyl]-1,10,11,12,13,15-hexahydropyrazolo[4′,3′:9,10][1,6]oxazacycloundecino[8,7,6-hi]indole-8-carboxylic acid-N-ethylethanamine Salt (Enantiomer 1)], the IC50 in the data set on SUDHL5 [1] (setting [7]) was found to be 3.54e-06 M; with SUDHL10 [2] (setting [8]) it was 6e-06 M; in the data set with SUDHL10 [4], 3.1e-06 M; at MCL-1 it was 0.987 nM; in the data set with SUDHL5 [6] it was 5.16e-06 M; with A2780 it was 3.25e-05 M. Also, the IC50 was over 3.3e-05 M in the data set on A2780 (Homo sapiens, A2780, 72 h) and 8.03e-06 M in the data set with MV-4-11. For the same compound, the EC50 is 12 µM in the data set on SUDHL10 [3] and 2.85 µM in the data set with SUDHL5 [5].
Consider `Cc1nn(C)c2c1-c1cccc3c(CCCOc4cccc5ccccc45)c(C(=O)O)n(c13)CCCOC2` (single isomer, unassigned; enantiomer 1) [Example 044, 9,11-dimethyl-1-[3-(naphthalen-1-yloxy)propyl]-5,6,8,9-tetrahydro-4H-pyrazolo[4′,3′:8,9][1,5]oxazecino[7,6,5-h]indole-2-carboxylic acid-N-ethylethanamine Salt (Enantiomer 1)], for which the IC50 in the data set on SUDHL5 [1] (setting [7]) is 6.01e-06 M; in the data set with SUDHL10 [2] (setting [9]), 2.34e-05 M; with SUDHL10 [4] (Homo sapiens, SU-DHL10, 72 h) it was 1.1e-05 M; against MCL-1, 3.57 nM; in the data set on SUDHL5 [6] (Homo sapiens, SU-DHL-5, 72 h), 7.61e-06 M; in the data set with A2780 (Homo sapiens, A2780, 72 h) it was over 3.3e-05 M. Besides, the IC50 in the data set with MV-4-11 was determined as 4.1e-06 M. Moreover, the EC50 with SUDHL10 [3] (Homo sapiens, SU-DHL10, 3 h) is 25.3 µM; in the data set on SUDHL5 [5] it was 6.63 µM.
Take `Cc1nn(CCN2CCOCC2)c2c1-c1cccc3c(CCCOc4cccc5ccccc45)c(C(=O)O)n(c13)CCCCOC2` (single isomer, unassigned; enantiomer 1) [Example 096, 3-methyl-1-[2-(morpholin-4-yl)ethyl]-7-[3-(naphthalen-1-yloxy)propyl]-1,10,11,1213,15-hexahydropyrazolo[4′,3′:9,10][1,6]oxazacycloundecino[8,7,6-hi]indole-8-carboxylic acid-N-ethylethanamine Salt (Enantiomer 1)]: the IC50 in the data set with SUDHL5 [1] (setting [7]) stood at 1.09e-06 M; in the data set with SUDHL10 [2] (setting [8]), 3.7e-06 M; with SUDHL10 [4] (Homo sapiens, SU-DHL10, 72 h), 7.13e-06 M; at MCL-1 it was 1.36 nM; in the data set with SUDHL5 [6], 2.32e-06 M; with A2780 (Homo sapiens, A2780, 72 h) it was 2.79e-05 M. Moreover, the IC50 with MV-4-11 worked out at 1.45e-06 M. In addition, the EC50 with SUDHL10 [3] stood at 3.97 µM; in the data set on SUDHL5 [5], 1.34 µM.
With `Cc1nn(CC(F)(F)F)c2c1-c1cccc3c(CCCOc4cccc5ccccc45)c(C(=O)O)n(c13)CCCCOC2` (single isomer, unassigned; enantiomer 1) [Example 110, 3-methyl-7-[3-(naphthalen-1-yloxy)propyl]-1-(2,2,2-trifluoroethyl)-1,10,11,12,13,15-hexahydropyrazolo[4′,3′:9,10][1,6]oxazacycloundecino[8,7,6-hi]indole-8-carboxylic acid-N-ethylethanamine Salt (Enantiomer 1)], the IC50 with SUDHL5 [1] (setting [7]) was 6.54e-06 M; in the data set with SUDHL10 [2] (setting [9]), 2.37e-05 M; with SUDHL10 [4] it was 1.72e-05 M; against MCL-1 it was 12.4 nM; in the data set with SUDHL5 [6], 1.24e-05 M; in the data set with A2780 (Homo sapiens, A2780, 72 h) it was over 3.3e-05 M. For the same compound, the IC50 in the data set with MV-4-11 turned out to be 1.33e-05 M. Besides, the EC50 with SUDHL10 [3] (Homo sapiens, SU-DHL10, 3 h) is 26 µM; with SUDHL5 [5], 8.06 µM.
In the case of `Cn1nc(CN2CCOCC2)c2c1COCC=CCn1c(C(=O)O)c(CCCOc3cccc4ccccc34)c3cccc-2c31` (single isomer, unassigned; enantiomer 1) [Example 133, (E/Z)-1-methyl-3-(morpholin-4-ylmethyl)-7-[3-(naphthalen-1-yloxy)propyl]-1,10,13,15-tetrahydropyrazolo[4′,3′:9,10][1,6]oxazacycloundecino[8,7,6-hi]indole-8-carboxylic acid-N-ethylethanamine Salt (Enantiomer 1)], the IC50 in the data set with SUDHL5 [1] (Homo sapiens, SU-DHL-5, 5 h, read-out: Cytotox SUDHL5 [M] (median), SUDHL5 cells, cytotoxicity induction, CellTiter-Glo, 5 h incubation, median) amounted to 1.84e-05 M; in the data set on SUDHL10 [2] (setting [9]), 2.95e-05 M; in the data set with SUDHL10 [4], 4.25e-06 M; against MCL-1 it was 18.6 nM; in the data set on SUDHL5 [6] (Homo sapiens, SU-DHL-5, 72 h), 1.62e-05 M; with A2780 (Homo sapiens, A2780, 72 h), 1.51e-05 M. Besides, the IC50 in the data set with MV-4-11 amounted to 6.84e-06 M. In addition, the EC50 in the data set with SUDHL10 [3] (Homo sapiens, SU-DHL10, 3 h) stood at 32.8 µM; with SUDHL5 [5] (Homo sapiens, SU-DHL-5, 3 h) it was 17.6 µM.
As to `Cn1nc(CN2CC(F)(F)C2)c2c1COCCCCn1c(C(=O)O)c(CCCOc3cccc4ccccc34)c3cccc-2c31` (single isomer, unassigned; enantiomer 1) [Example 181, 3-[(3,3-difluoroazetidin-1-yl)methyl]-1-methyl-7-[3-(naphthalen-1-yloxy)propyl]-1,10,11,12,13,15-hexahydropyrazolo[4′,3′:9,10][1,6]oxazacycloundecino[8,7,6-hi]indole-8-carboxylic acid-N-ethylethanamine Salt (Enantiomer 1)], the IC50 in the data set on SUDHL5 [1] (setting [7]) was 6.68e-06 M; in the data set with SUDHL10 [2] (setting [9]), 1.67e-05 M; with SUDHL10 [4] (Homo sapiens, SU-DHL10, 72 h), 8.23e-06 M; against MCL-1, 7.77 nM; in the data set with SUDHL5 [6], 6.23e-06 M; in the data set on A2780 (Homo sapiens, A2780, 72 h) it was 2.46e-05 M. The IC50 in the data set with MV-4-11 came out at 1.8e-05 M. The figures for the EC50 with SUDHL10 [3] and in the data set on SUDHL5 [5] were 16.1 µM and 5.11 µM, respectively.
Regarding `COCc1nn(C)c2c1-c1cccc3c(CCCOc4cccc5ccccc45)c(C(=O)O)n(c13)CCCCN(C)C2` (single isomer, unassigned; enantiomer 1) [Example 184, 3-(methoxymethyl)-1,14-dimethyl-7-[3-(naphthalen-1-yloxy)propyl]-10,11,12,13,14,15-hexahydro-1H-pyrazolo[3′,4′:8,9][1,6]diazacycloundecino[10,11,1-hi]indole-8-carboxylic acid-N-ethylethanamine Salt (Enantiomer 1)], the IC50 was 8.82e-07 M in the data set on SUDHL5 [1] (setting [7]); 2.94e-06 M in the data set on SUDHL10 [2] (setting [8]); 1.2e-06 M in the data set with SUDHL10 [4]; 1.6 nM against MCL-1; 1.34e-06 M in the data set with SUDHL5 [6]; over 3.3e-05 M in the data set on A2780 (Homo sapiens, A2780, 72 h). In addition, the IC50 in the data set with MV-4-11 turned out to be 1.52e-06 M. Moreover, the results for the EC50 in the data set on SUDHL10 [3] and in the data set with SUDHL5 [5] were 2.9 µM and 0.803 µM, respectively.
